Results: US4053632A, “Compounds of spiro-amine type and methods for their use” (priority 1971, dated 1977)
“Also recorded” adds a separate entry of the source. Like-named read-outs stand apart in the source and are kept apart here.

Tests used:
l-Dopa response = experiment: Dopa response potentiation test; format: in vivo, mouse
Protocol: This test is developed by G.M. Everett (Antidepressant drugs,[…] in groups of 3 are pretreated with Pargyline ®40 l mg/kg p.o. about 10-16 hours before the test. […] 1. piloerection, slight salivation, slight increased motor activity 2. piloerection, salivation, marked increased motor activity and irritability 3. piloerection, profuse salivation, marked irritability and reactivity, jumping, squeaking, fighting.

[1] = test system: uptake of 5-HT (midbrain slices); experiment: Inhibition of the uptake of tritiated 5-HT in vitro (brain slices); format: biochemical, mouse
[2] = test system: uptake of noradrenaline (cortex slices); experiment: Inhibition of the uptake of tritiated noradrenaline in vitro (brain slices); format: biochemical; conditions: dl-noradrenaline 10^-7 M
[3] = test system: uptake of 5-HT (midbrain slices); experiment: Inhibition of the uptake of tritiated 5-HT in vivo; design: species or system mouse; conditions: for ED50: Mus musculus, ip, 0.5 h, i.p., in vivo, read-out: Inhibition (50 %) of uptake in vivo, 5-HT
Protocol: The drugs were administered intraperitoneally half an hour before the animals were killed and the midbrain was taken out and sliced and incubated in a mixture consisting of, per 100 mg of brain slices, 0.2 μmole of ^3 H-5-HT and 1 μmole of glucose in 2 ml of Krebs-Henseleit buffer, pH 7.4. The incubation time was 5 minutes with 5 minutes of preincubation before ^3 H-5-HT was added. The radioactive ^3 H-5-HT taken up in the slices was extracted with ethanol and the amount was determined by liquid scintillation. The dose producing 50 per cent decrease of the active uptake (ED50) was determined graphically from dose response curves. Active uptake is defined as that part of the radioactive uptake which is inhibited by a high concentration of cocaine. All doses were given at least to four animals.

[4] = test system: uptake of noradrenaline (cortex slices); experiment: Inhibition of the uptake of tritiated noradrenaline in vivo; conditions: for ED50: ip, read-out: Inhibition (50 %) of uptake in vivo, NA; for effectiveness in blocking the uptake of noradrenaline in vivo relative to imipramine: versus imipramine
Protocol: The animals were killed half or one hour after the administration of the drugs in vivo (i.p.). The slices, made from cortex, were preincubated for five minutes and incubated with 0.1 μmole per ml of ^3 H-noradrenaline for further five minutes. The incubation mixture consisted of 0.2 μmole of ^3 H-NA and the brain slices in 2 ml of Krebs-Henseleits buffer, pH 7.4. The radioactive ^3 H-NA taken up in the slices was extracted with ethanol and the amount was determined by liquid scintillation. The dose producing 50 per cent decrease of the active uptake (ED50) was determined graphically from dose response curves. At least four animals were used at each dose level.

in vivo = conditions: mouse
Protocol: (§1) The compounds were given by intravenous route to 3 mice. […] Seizures, gait, sedation and grip strength were recorded.
(§2) Acute toxicity was tested by the intraveneous, intraperitoneal and oral routes of administration. […] During the oral route a behavioral scoring system was used in order to relate changes in behavior to dose. The LD50 values were determined graphically from log dose -- response curves based on four doses with three animals per dose. Peripheral parasympatholytic effect was tested in mice by observing the mydriatic effect after intravenous injection (9) (four doses with three animals per dose). PD200 refers to the dose which increases the pupil width by 200%.

pupil width (mydriasis) [5] = experiment: Peripheral anticholinergic (parasympatholytic) effect, mydriasis in mice; conditions: for Peripheral anti-cholinergic action PD200: i.v., dose increasing the pupil by 200%
Protocol: as §1, §2

5-HTP response = 5-HTP response potentiation test; format: in vivo, mouse; conditions: for minimal effective dose: Mus musculus, ip
Protocol: These small movements are quantitatively measured in an activity box, type Animex, which can distinguish between small and gross movements. The activity is measured during 20 minutes and only in the case the animals have a fullblown syndrome.

motor activity = experiment: Motor activity in mice; format: in vivo, mouse; conditions: for ED50: Mus musculus, 1 h; for ED50 / sedation (motor activity) versus CPZ: mice
Protocol: The exploratory activity of mice was recorded in a locomotion cage in which the movements were counted each time the animals cross-circuits on electrical current in the bottom plate. […] The animals were tested individually. Groups of six mice were used and the mice were only used once. The activity was expressed in percent of the activity of control groups ran simultaneously.
Sedative activity was defined as suppression of normal motor activity. The motor activity in mice was automatically recorded in a locomotion cage in which the movements are counted each time the animal short-circuits an electrical current in the bottom plate. […] The animals were tested individually. Groups of six mice were used. The activity was expressed in percent of the activity of control groups run simultaneously.

rabbits = experiment: Drug induced arrhythmias in rabbits; format: in vivo, rabbit
Excerpt: Test drugs were intravenously administered to male rabbits anesthesized wth amytal. The doses were increased stepwise up to the lethal dose and the first dose which induced arrhythmia was noted.

pupil width (mydriasis) [6] = conditions: mouse, in vivo; for Peripheral anti-cholinergic action PD200 / PD200 (Table 4): iv, 10 min
Protocol: as §1, §2

mice = experiment: Acute toxicity in mice; conditions: in words
Protocol: as §1, §2

[7] = test system: conditioned avoidance response (CAR); experiment: Conditioned avoidance response in rats; format: in vivo, rat; conditions: rat; for CAR CD50: i.p., 60 min; for effect on conditioned avoidance response: in words
Protocol: For this reason the conditioned avoidance test has been developed for initial screening of neuroleptics. Rats were trained to avoid electrical shock by jumping from one compartment to the other in a shuttle box. The conditioned stimulus consists of an auditory signal which after eight seconds was followed by the electrical shock. The rates were trained to a criterion of making eight out of ten responses correctly. The drugs were injected one hour before the test. The avoidance responses are expressed in percentage of those before administration. CD50 is the dose which reduces the avoidance response to 50% of control values.

[8] = Mus musculus, ip; read-out: Potentiation of l-Dopa, effective dose
[9] = ip, i.p., read-out: Motor activity ID50 (Table 4)

Compound	Inhibition (50 %) of uptake in vitro, 5-HT [1] [µg/mL]	Inhibition (50 %) of uptake in vitro, NA [2] [µg/mL]	ED50 [3] [mg/kg]	ED50 [4] [mg/kg]	LD50 at 24 h (in vivo; iv) [mg/kg]	Peripheral anti-cholinergic action PD200 (pupil width (mydriasis) [5]) [mg/kg]	minimal effective dose (5-HTP response) [mg/kg]	minimal effective dose (l-Dopa response; [8]) [mg/kg]	ED50 (motor activity; read-out: Motor activity ID50) [mg/kg]	Peripheral anti-cholinergic action PD200 (pupil width (mydriasis) [6]) [mg/kg]	also measured
CN(C)CCC=C1c2ccccc2CCc2ccccc21 [Amitriptyline, reference compound]											l-Dopa syndrome score (l-Dopa response; 20 mg/kg i.p. 4 hours before l-Dopa): three
CN(C)C1C=CC2(CC1)c1ccccc1C=Cc1ccccc12 (stereo not drawn) [CPG 146]	4	0.02	> 40	1.7	30	1					effectiveness in blocking the uptake of noradrenaline in vivo relative to imipramine [4]: about three times as effective as imipramine
CN(C)C1CCC2(CC1)c1ccccc1C=Cc1ccccc12 [CPG 147]	4	0.05	> 40	1.5	32	1	> 25	2.5	27		effectiveness in blocking the uptake of noradrenaline in vivo relative to imipramine [4]: about three times as effective as imipramine
CNC1CCC2(CC1)c1ccccc1C=Cc1ccccc12 [CPG 148]	3	1.5	> 40	> 40	60	3.5	> 25	> 10	35		
NC1C=CC2(CC1)c1ccccc1C=Cc1ccccc12 (stereo not drawn) [CPG 186]	> 10	1.5	28	14	25		25	> 10	> 50	> 25	blocking the uptake of 5-HT in vivo versus imipramine ([3]; in words): blocks the uptake of 5-HT in equivalent doses; sedation / tranquilizing effect (motor activity; in words): gave sedation only in high doses; arrhythmia in rabbits (rabbits; nonlethal doses, in words): did not cause arrhythmia in nonlethal doses in rabbits; Arrythmia (rabbit), accumulated i.v. dose where there are signs of arrythmia (rabbits; rabbit, in vivo, iv): > 10; anticholinergic effects (pupil width (mydriasis) [6]): devoid of the anticholinergic effects
NC1CCC2(CC1)c1ccccc1C=Cc1ccccc12 [CPG 191]	2	1.5	> 40	> 40	32		> 25	> 10	53	< 10	
CNC1C=CC2(CC1)c1ccccc1C=Cc1ccccc12 (stereo not drawn) [CPG 264]	1.3	0.3	> 40	1.3	25	2.5	> 25	> 10	13		effectiveness in blocking the uptake of noradrenaline in vivo relative to imipramine [4]: about three times as effective as imipramine
CN(C)CCCN1c2ccccc2CCc2ccccc21 [Imipramine, reference compound]	0.1	0.06	24	6		13	25		45		potentiation of dl-5-HTP (5-HTP response; reference, in words): constantly potentiated dl-5-HTP; minimal effective dose (l-Dopa response; Mus musculus, ip, read-out: Potentiation of l-Dopa, effective dose): 10 mg/kg; anticholinergic effects (pupil width (mydriasis) [5]; in words): anticholinergic effects shared by imipramine
CN(C)C1C=CC2(CC1)c1ccccc1C=Cc1ccc(Cl)cc12 (stereo not drawn) [SIR 114]	7	2.5	> 40	> 40	22		> 25	> 10	5.5	15	ED50 (motor activity; [9]): 5.5 mg/kg; sedation (motor activity) versus CPZ (motor activity; in words): caused sedation in the mice at about the same dose as CPZ; PD200 (Table 4) (pupil width (mydriasis) [6]): 15 mg/kg; LD50 at 24 h (in vivo; ip): 130 mg/kg; acute toxicity versus CPZ (mice): intravenous toxicity in the same range as CPZ
CN(C)C1CCC2(CC1)c1ccccc1CCc1ccc(Cl)cc12 (stereo not drawn) [SIR 117]	5	1.5	> 40	> 40	27		> 25	> 10	14	15	ED50 (motor activity; [9]): 14 mg/kg; sedation (motor activity) versus CPZ (motor activity; in words): somewhat less active; PD200 (Table 4) (pupil width (mydriasis) [6]): 15 mg/kg; acute toxicity versus CPZ (mice): intravenous toxicity in the same range as CPZ
CN(C)C1CCC2(CC1)c1ccccc1C=Cc1ccc(Cl)cc12 (stereo not drawn) [SIR 118]	4	1.5	> 40	> 40	18		> 25	> 10	11	9	ED50 (motor activity; [9]): 11 mg/kg; sedation (motor activity) versus CPZ (motor activity; in words): somewhat less active; acute toxicity versus CPZ (mice): intravenous toxicity in the same range as CPZ
CN(C)C1C=CC2(CC1)c1ccccc1CCc1ccc(Cl)cc12 (stereo not drawn) [SIR 124]											CAR CD50 [7]: > 10 mg/kg; effect on conditioned avoidance response [7]: relatively weak effect on CAR
CN(C)C1C=CC2(CC1)c1ccccc1CCc1ccc(Cl)cc12 (stereo not drawn) [SIR 125]											CAR CD50 [7]: < 2.5 mg/kg; effect on conditioned avoidance response [7]: more potent than the racemate SIR 109 and also more potent than CPZ; also recorded: more potent than both SIR 109 and chlorpromazine; effect on conditioned avoidance response ([7]; listed as β-isomer): the biological activity mainly originates from the β-isomer
